Calls of active or inactive are those of the source. The calls are words filed in the database; no cut-off is given here.
Experiments:
[1] = Inhibition of NC-induced HIV1 cTAR destabilization assessed as change in melting temperature by fluorescence quenching assay; set-up: species or system Human immunodeficiency virus 1
Jurkat [2] = experiment: Cytotoxicity against human Jurkat cells up to 100 uM after 72 hrs by MTT assay; format: cell-based
[3] = Octanol-water partition co-efficient, log P of the compound by shake flask method; format: physicochemical
Nucleic Acid [4] = experiment: Binding affinity to HIV1 TAR RNA assessed as change in melting temperature by […]; format: nucleic-acid assay; settings: Human immunodeficiency virus 1
[5] = Inhibition of NC-induced HIV1 TAR destabilization assessed as change in melting temperature by fluorescence quenching assay; set-up: species or system Human immunodeficiency virus 1
[6] = tested on: Human immunodeficiency virus 1; experiment: Binding affinity to HIV1 cTAR DNA assessed as change in melting temperature by […]
Nucleic Acid [7] = experiment: Binding affinity to HIV1 TAR/cTAR RNA/DNA duplex assessed as change in melting temperature by […]; format: nucleic-acid assay; settings: Human immunodeficiency virus 1
[8] = tested on: Human immunodeficiency virus 1; experiment: Antiviral activity against HIV1 infected in human Jurkat cells assessed as inhibition of viral replication after 3 to 4 days; format: functional, organism-based
[9] = Inhibition of NC-induced HIV1 TAR/cTAR annealing assessed as change in melting temperature preincubated for 15 mins before NC addition measured after 15 mins by gel electrophoresis; set-up: species or system Human immunodeficiency virus 1
[10] = tested on: Human immunodeficiency virus 1; experiment: Antiviral activity against HIV1 infected in human Jurkat cells assessed as inhibition of viral replication by CAT gene-based transcomplementation assay; format: functional, organism-based
Jurkat [11] = experiment: Drug uptake in human Jurkat cells at 100 uM after 3 hrs by spectrophotometry; format: ADME, cell-based

SMILES	IC50 [1] [µM]	Activity (Jurkat [2])	logP [3]	ΔTm (Nucleic Acid [4]) [°C]	IC50 [5] [µM]	ΔTm [6] [°C]	ΔTm (Nucleic Acid [7]) [°C]	Activity [8]	IC50 [9] [µM]	Activity [10]	Drug uptake (Jurkat [11])
NCC1CCC(C(=O)NCCC(=O)Nc2ccc3c(c2)C(=O)c2ccc(NC(=O)CCNC(=O)C4CCC(CN)CC4)cc2C3=O)CC1.O=C(O)C(F)(F)F.O=C(O)C(F)(F)F (stereo unspecified)	13.7	Non-toxic	-2.31	0.97	17.6	1.86	0.84	inactive	–	–	–
O=C(CCNC(=O)C1CCNCC1)Nc1ccc2c(c1)C(=O)c1ccc(NC(=O)CCNC(=O)C3CCNCC3)cc1C2=O.O=C(O)C(F)(F)F.O=C(O)C(F)(F)F	36.3	Non-toxic	-2.91	1.49	42.9	1.11	0.65	inactive	95.8	–	–
NCCCC(N)C(=O)NCCC(=O)Nc1ccc2c(c1)C(=O)c1ccc(NC(=O)CCNC(=O)C(N)CCCN)cc1C2=O.O=C(O)C(F)(F)F.O=C(O)C(F)(F)F.O=C(O)C(F)(F)F.O=C(O)C(F)(F)F (stereo unspecified)	2.04	Non-toxic	-2.51	16.2	3.2	13.8	3.1	–	21.9	inactive	–
NC1(C(=O)NCCC(=O)Nc2ccc3c(c2)C(=O)c2ccc(NC(=O)CCNC(=O)C4(N)CCNCC4)cc2C3=O)CCNCC1.O=C(O)C(F)(F)F.O=C(O)C(F)(F)F.O=C(O)C(F)(F)F.O=C(O)C(F)(F)F	15.4	Non-toxic	-2.91	2.23	13.8	2.14	1.12	inactive	–	–	–
NCCC(=O)NCCC(=O)Nc1ccc2c(c1)C(=O)c1ccc(NC(=O)CCNC(=O)CCN)cc1C2=O.O=C(O)C(F)(F)F.O=C(O)C(F)(F)F	11.8	Non-toxic	-2.98	2.79	10	2.14	1.12	inactive	76.8	–	–
NCCCCC(N)C(=O)NCCC(=O)Nc1ccc2c(c1)C(=O)c1ccc(NC(=O)CCNC(=O)C(N)CCCCN)cc1C2=O (stereo unspecified)	3.84	–	–	2.88	3.71	2.14	1.12	–	44.5	–	Not Active
NCCC(N)C(=O)NCCC(=O)Nc1ccc2c(c1)C(=O)c1ccc(NC(=O)CCNC(=O)C(N)CCN)cc1C2=O.O=C(O)C(F)(F)F.O=C(O)C(F)(F)F.O=C(O)C(F)(F)F.O=C(O)C(F)(F)F (stereo unspecified)	7.1	Non-toxic	-2.55	8.95	6.3	10.5	1.77	inactive	44.1	–	–
NCC(N)C(=O)NCCC(=O)Nc1ccc2c(c1)C(=O)c1ccc(NC(=O)CCNC(=O)C(N)CN)cc1C2=O.O=C(O)C(F)(F)F.O=C(O)C(F)(F)F.O=C(O)C(F)(F)F.O=C(O)C(F)(F)F (stereo unspecified)	22.8	Non-toxic	-2.56	2.38	21.4	1.92	0.28	inactive	–	–	–
Nc1ccc(CC(N)C(=O)NCCC(=O)Nc2ccc3c(c2)C(=O)c2ccc(NC(=O)CCNC(=O)C(N)Cc4ccc(N)cc4)cc2C3=O)cc1.O=C(O)C(F)(F)F.O=C(O)C(F)(F)F.O=C(O)C(F)(F)F.O=C(O)C(F)(F)F (stereo unspecified)	–	Non-toxic	-2.51	–	–	–	–	inactive	42.3	–	–
